Drawing on PubChem BioAssay (NCI), this text covers GI50 and TGI for 9 molecules.

Some test systems named below: BT-549 breast; HOP-92 NSCLC; IGROV1 ovarian; NCI-H226 lung; NCI-H460 lung; NCI-H522 lung; T-47D breast; UACC-62 melanoma; NCI-H23 lung; SW-620 colon.
What all share (assay): NCI tumour cell line growth inhibition, 48 h

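Exposure lasted 48 hours, with cells grown in 96-well plates and compounds tested at five concentrations. GI50 = concentration required for 50% inhibition of growth. TGI denotes the concentration required for complete inhibition of growth.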

As for `O=C(Nc1ccc(Cl)c(C(F)(F)F)c1)c1ccc(NC2=C(Cl)C(=O)N(Cc3ccccc3)C2=O)cc1`, the GI50 was 2.28 µM in the assay with BT-549 breast; 4.34 µM in the assay with HOP-92 NSCLC; 1.59 µM in the assay with IGROV1 ovarian; 23.1 µM with NCI-H226 lung; 7.04 µM with NCI-H460 lung; 2.18 µM in the assay on NCI-H522 lung. In addition, the figures for the GI50 in the assay on T-47D breast and in the assay on UACC-62 melanoma were 6.11 µM and 16.6 µM, respectively. For the same molecule, the TGI was 5.78 µM with BT-549 breast; 14.7 µM in the assay on HOP-92 NSCLC; 3.92 µM in the assay on IGROV1 ovarian; 53 µM in the assay on NCI-H226 lung; 42.3 µM in the assay on NCI-H460 lung; 5.54 µM with NCI-H522 lung. Also, the TGI with T-47D breast was greater than 100 µM; in the assay with UACC-62 melanoma, 30.2 µM.
Consider `COC(=O)c1cc2c(s1)-c1nccc3c1c(nc1ccccc13)C2=O`, for which the GI50 with BT-549 breast is greater than 100 µM; with IGROV1 ovarian it was 28.8 µM; in the assay with NCI-H226 lung it was greater than 100 µM; with NCI-H23 lung it was greater than 100 µM; in the assay on NCI-H460 lung it was greater than 100 µM; with NCI-H522 lung, 35 µM. In addition, the GI50 is 61.7 µM with SW-620 colon, 62.8 µM with T-47D breast and greater than 100 µM with UACC-62 melanoma. The TGI with BT-549 breast, with IGROV1 ovarian, in the assay on NCI-H226 lung, with NCI-H23 lung, in the assay on NCI-H460 lung and in the assay with NCI-H522 lung was greater than 100 µM throughout. Also, the TGI in the assay with SW-620 colon, in the assay with T-47D breast and with UACC-62 melanoma was greater than 100 µM in each case.
Take `O=[N+]([O-])c1cccc2ccc(N/N=C/c3ccccc3O)nc12`: the GI50 in the assay on BT-549 breast was greater than 100 µM; in the assay on HOP-92 NSCLC it was greater than 100 µM; in the assay with NCI-H226 lung, greater than 100 µM; in the assay on NCI-H23 lung it was greater than 100 µM; in the assay with NCI-H460 lung it was greater than 100 µM; with SW-620 colon, 3.88 µM. Further, the GI50 in the assay with T-47D breast was 1.07 µM; in the assay on UACC-62 melanoma, greater than 100 µM. In addition, the TGI is greater than 100 µM in the assay with BT-549 breast; greater than 100 µM with HOP-92 NSCLC; greater than 100 µM in the assay on NCI-H226 lung; greater than 100 µM in the assay on NCI-H23 lung; greater than 100 µM with NCI-H460 lung; greater than 39.6 µM with NCI-H522 lung. Besides, the TGI with SW-620 colon, with T-47D breast and with UACC-62 melanoma was greater than 100 µM each time.
For the molecule `Oc1ccc2ccccc2c1N=Nc1ccc(Br)cc1`, the TGI in the assay with BT-549 breast, in the assay with HOP-92 NSCLC, with IGROV1 ovarian, in the assay with NCI-H226 lung, with NCI-H23 lung and in the assay on NCI-H522 lung was greater than 100 µM in each case. Besides, the TGI in the assay with SW-620 colon, with T-47D breast and in the assay with UACC-62 melanoma was greater than 100 µM in each case.
With `O=C(/C=C/C=C/c1ccccc1)c1ccccc1`, the TGI in the assay on BT-549 breast stood at 43.5 µM; in the assay on HOP-92 NSCLC it was 39.1 µM; in the assay with IGROV1 ovarian, 31.2 µM; with NCI-H226 lung it was 34.3 µM; with NCI-H460 lung, 49.5 µM; in the assay on NCI-H522 lung, 20.2 µM. For the same molecule, the TGI in the assay with SW-620 colon came to 30.3 µM; in the assay with T-47D breast, 48.2 µM; with UACC-62 melanoma, 33 µM.
Consider `O=C(Nc1cc(C(F)(F)F)ccc1Cl)c1cccc(NC2=C(Cl)C(=O)N(Cc3ccccc3)C2=O)c1`, for which the GI50 with BT-549 breast was 15.6 µM; in the assay on HOP-92 NSCLC it was 19.1 µM; in the assay with IGROV1 ovarian, 2.81 µM; with NCI-H226 lung, 17.6 µM; in the assay with NCI-H460 lung, 38.2 µM; in the assay on NCI-H522 lung it was 6.8 µM. Besides, the GI50 in the assay with SW-620 colon is 52.7 µM; with T-47D breast it was 81.1 µM; in the assay on UACC-62 melanoma it was 26.5 µM. The TGI in the assay with BT-549 breast was greater than 100 µM; in the assay on HOP-92 NSCLC, greater than 100 µM; in the assay with IGROV1 ovarian, greater than 100 µM; with NCI-H226 lung, greater than 100 µM; in the assay on NCI-H460 lung, greater than 100 µM; with NCI-H522 lung, 45.3 µM. For the same molecule, the TGI with SW-620 colon, with T-47D breast and with UACC-62 melanoma was greater than 100 µM each time.
On to `CCOC(=O)c1c(-c2ccc(OC)cc2)c(C#N)c2c(C#N)c(N)nn2c1N`, for which the GI50 in the assay with BT-549 breast is 2.65 µM; in the assay with IGROV1 ovarian, 3.48 µM; with NCI-H226 lung, 3.62 µM; with NCI-H23 lung it was 4.69 µM; in the assay on NCI-H460 lung, 3.67 µM; in the assay on NCI-H522 lung it was 2.55 µM. The GI50 in the assay with SW-620 colon is 5.62 µM; in the assay with T-47D breast it was 2.93 µM; in the assay on UACC-62 melanoma, 2.47 µM. The TGI is 28.1 µM in the assay on BT-549 breast; greater than 100 µM in the assay with IGROV1 ovarian; greater than 100 µM in the assay on NCI-H226 lung; greater than 100 µM with NCI-H23 lung; 30.9 µM in the assay with NCI-H460 lung; 12.5 µM in the assay on NCI-H522 lung. Further, the TGI was greater than 100 µM in the assay on SW-620 colon, 33.1 µM in the assay on T-47D breast and 15.2 µM in the assay with UACC-62 melanoma.
`Cc1ccc(Nc2oc(-c3ccccc3)nc2[P+](c2ccccc2)(c2ccccc2)c2ccccc2)cc1`: the GI50 was 1.41 µM in the assay on BT-549 breast; 0.209 µM in the assay on HOP-92 NSCLC; 0.889 µM in the assay with IGROV1 ovarian; 0.458 µM in the assay with NCI-H23 lung; 0.804 µM in the assay with NCI-H460 lung; 0.45 µM in the assay on NCI-H522 lung. The results for the GI50 in the assay with SW-620 colon, in the assay on T-47D breast and in the assay with UACC-62 melanoma were 0.675 µM, 0.43 µM and 0.687 µM, respectively. Besides, the TGI with BT-549 breast turned out to be 2.92 µM; in the assay on HOP-92 NSCLC, 1.02 µM; in the assay with IGROV1 ovarian it was 2.37 µM; with NCI-H23 lung, 2.08 µM; in the assay on NCI-H460 lung it was 2.2 µM; in the assay with NCI-H522 lung, 1.79 µM. Also, the TGI in the assay on SW-620 colon worked out at 2.05 µM; with T-47D breast, 2.33 µM; in the assay on UACC-62 melanoma, 2.01 µM.
For the molecule `C#Cc1nc(Nc2cc(C)[nH]n2)c2ccccc2n1`, the GI50 is 0.233 µM in the assay with BT-549 breast; 0.293 µM with HOP-92 NSCLC; 0.22 µM with IGROV1 ovarian; 0.553 µM in the assay with NCI-H23 lung; 0.346 µM with NCI-H460 lung; 0.476 µM in the assay on NCI-H522 lung. The GI50 in the assay on SW-620 colon is 0.327 µM; with T-47D breast, 0.39 µM; in the assay on UACC-62 melanoma, 0.165 µM. In addition, the TGI in the assay with BT-549 breast is 0.475 µM; in the assay on HOP-92 NSCLC, 1.25 µM; in the assay on IGROV1 ovarian it was 0.563 µM; in the assay with NCI-H23 lung, 3.59 µM; with NCI-H460 lung it was 1.43 µM; with NCI-H522 lung it was 1.99 µM. Also, the TGI was determined as 1.3 µM in the assay on SW-620 colon, 2.11 µM with T-47D breast and 0.332 µM with UACC-62 melanoma.
